Assay results from ChEMBL document CHEMBL3227945, “Synthesis of all the stereoisomers of statine (4-amino-3-hydroxy-6-methylheptanoic acid). Inhibition of pepsin activity by N-carbobenzoxy-L-valyl-L-valyl-statine derived from the four stereoisomers” (J Med Chem, 1979).
≈ marks a conversion by molar mass, not a printed value.

How the values were obtained:
[1] = species: Sus scrofa; experiment: Inhibition of porcine pepsin activity assessed as hydrolysis of N-Cbz-L-Pheylalanyl-L-Tyrosine substrate
[2] = species: Sus scrofa; experiment: Inhibition of porcine pepsin activity assessed as hydrolysis of 0.5% hemoglobin solution substrate after 1 hr

Row | Compound | ID50 [1] [µg/mL] | ID50 [2] [µg/mL]
1 | CC(C)C[C@@H](NC(=O)[C@@H](NC(=O)[C@@H](NC(=O)OCc1ccccc1)C(C)C)C(C)C)[C@H](O)CC(=O)O | 42 (≈ 82.7 µM) | 18 (≈ 35.5 µM)
2 | CC(C)C[C@H](NC(=O)[C@@H](NC(=O)[C@@H](NC(=O)OCc1ccccc1)C(C)C)C(C)C)[C@H](O)CC(=O)O | 12 (≈ 23.6 µM) | 21 (≈ 41.4 µM)
3 | CC(C)C[C@@H](NC(=O)[C@@H](NC(=O)[C@@H](NC(=O)OCc1ccccc1)C(C)C)C(C)C)[C@@H](O)CC(=O)O | 219 (≈ 431 µM) | 224 (≈ 441 µM)

Second part, the compound after the results:

Row | ID50 [1] [µg/mL] | ID50 [2] [µg/mL] | Compound
4 | 1 (≈ 1.97 µM) | 0.1 (≈ 0.197 µM) | CC(C)C[C@H](NC(=O)[C@@H](NC(=O)[C@@H](NC(=O)OCc1ccccc1)C(C)C)C(C)C)[C@@H](O)CC(=O)O
5 | 2 (≈ 2.92 µM) | 0.0052 (≈ 0.00758 µM) | CC(C)CC(=O)N[C@H](C(=O)N[C@H](C(=O)N[C@@H](CC(C)C)[C@@H](O)CC(=O)N[C@@H](C)C(=O)N[C@@H](CC(C)C)[C@@H](O)CC(=O)O)C(C)C)C(C)C
